Experimental data: ChEMBL document CHEMBL5291721, “A preclinical secondary pharmacology resource illuminates target-adverse drug reaction associations of marketed drugs” (Nat Commun, 2023)

How the values were obtained:
D(1A) dopamine receptor = D(1A) dopamine receptor (Homo sapiens, UniProt P21728); format: functional, cell-based
[1] = target: T1, Alpha-2A adrenergic receptor (Homo sapiens, UniProt P08913); format: functional, cell-based
T1 sequence (P08913 whole entry): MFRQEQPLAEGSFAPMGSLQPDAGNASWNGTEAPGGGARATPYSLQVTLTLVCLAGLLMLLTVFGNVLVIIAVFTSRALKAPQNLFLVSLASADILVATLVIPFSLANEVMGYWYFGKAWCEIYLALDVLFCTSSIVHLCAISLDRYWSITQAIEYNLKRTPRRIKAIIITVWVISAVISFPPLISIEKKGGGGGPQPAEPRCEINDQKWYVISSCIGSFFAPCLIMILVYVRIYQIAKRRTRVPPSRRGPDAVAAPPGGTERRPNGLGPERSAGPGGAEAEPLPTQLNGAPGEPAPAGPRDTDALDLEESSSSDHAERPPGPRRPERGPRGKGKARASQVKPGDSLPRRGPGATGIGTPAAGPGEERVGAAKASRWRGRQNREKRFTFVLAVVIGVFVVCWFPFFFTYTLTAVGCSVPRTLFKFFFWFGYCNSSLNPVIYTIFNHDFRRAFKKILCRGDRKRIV

[2] = target: Gamma-aminobutyric acid receptor subunit alpha-1 (Rattus norvegicus, UniProt P62813); format: functional
[3] = target: Sodium-dependent serotonin transporter (Homo sapiens, UniProt P31645)
[4] = target: Muscarinic acetylcholine receptor M3 (Homo sapiens, UniProt P20309)
[5] = target: cGMP-inhibited 3',5'-cyclic phosphodiesterase 3A (Homo sapiens, UniProt Q14432); format: functional
[6] = target: Neuronal acetylcholine receptor subunit alpha-4 (Homo sapiens, UniProt P43681)
Histamine H1 receptor = Histamine H1 receptor (Homo sapiens, UniProt P35367)
[7] = target: T2, 5-hydroxytryptamine receptor 1A (Homo sapiens, UniProt P08908); format: functional, cell-based
T2 sequence (P08908 whole entry): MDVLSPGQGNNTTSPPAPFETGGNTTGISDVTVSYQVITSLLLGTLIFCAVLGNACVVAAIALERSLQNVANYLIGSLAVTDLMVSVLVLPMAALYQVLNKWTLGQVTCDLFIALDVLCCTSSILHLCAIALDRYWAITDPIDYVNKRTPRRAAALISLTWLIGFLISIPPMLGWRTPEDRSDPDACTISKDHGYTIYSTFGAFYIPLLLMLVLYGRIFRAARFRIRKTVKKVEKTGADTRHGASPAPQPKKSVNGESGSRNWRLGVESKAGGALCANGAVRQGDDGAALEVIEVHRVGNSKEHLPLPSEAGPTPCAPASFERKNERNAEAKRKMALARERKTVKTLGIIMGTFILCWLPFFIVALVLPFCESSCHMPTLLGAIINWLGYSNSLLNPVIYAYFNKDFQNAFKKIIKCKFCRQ

[8] = target: 5-hydroxytryptamine receptor 2B (Homo sapiens, UniProt P41595); format: functional, cell-based
[9] = target: T3, Muscarinic acetylcholine receptor M2 (Homo sapiens, UniProt P08172); format: functional, cell-based
T3 sequence (P08172 whole entry): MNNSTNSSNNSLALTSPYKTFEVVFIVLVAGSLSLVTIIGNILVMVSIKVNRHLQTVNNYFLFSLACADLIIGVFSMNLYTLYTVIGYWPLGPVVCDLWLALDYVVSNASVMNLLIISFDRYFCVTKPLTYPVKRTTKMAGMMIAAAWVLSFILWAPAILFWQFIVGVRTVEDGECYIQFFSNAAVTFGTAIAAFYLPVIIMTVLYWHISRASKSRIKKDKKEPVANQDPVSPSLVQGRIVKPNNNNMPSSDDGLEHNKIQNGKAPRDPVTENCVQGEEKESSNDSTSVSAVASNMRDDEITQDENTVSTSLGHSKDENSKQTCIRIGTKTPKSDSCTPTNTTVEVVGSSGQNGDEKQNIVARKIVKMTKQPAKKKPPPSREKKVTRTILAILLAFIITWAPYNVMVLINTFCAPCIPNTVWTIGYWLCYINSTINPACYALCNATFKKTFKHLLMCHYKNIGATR

[10] = target: T4, Type-1 angiotensin II receptor (Homo sapiens, UniProt P30556)
T4 sequence (P30556 whole entry): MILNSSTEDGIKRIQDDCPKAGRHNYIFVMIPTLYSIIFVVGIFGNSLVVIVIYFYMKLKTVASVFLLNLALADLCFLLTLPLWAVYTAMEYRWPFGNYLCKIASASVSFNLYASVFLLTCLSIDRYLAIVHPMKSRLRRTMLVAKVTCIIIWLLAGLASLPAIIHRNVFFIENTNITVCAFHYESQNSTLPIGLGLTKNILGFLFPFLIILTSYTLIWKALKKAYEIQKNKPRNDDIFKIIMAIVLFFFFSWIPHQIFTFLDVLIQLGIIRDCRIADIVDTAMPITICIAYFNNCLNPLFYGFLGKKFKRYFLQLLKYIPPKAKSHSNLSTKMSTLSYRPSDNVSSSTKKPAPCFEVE

[11] = target: Delta-type opioid receptor (Homo sapiens, UniProt P41143)
Histamine H2 receptor = Histamine H2 receptor (Homo sapiens, UniProt P25021); format: functional, cell-based
[12] = target: Growth hormone secretagogue receptor type 1 (Homo sapiens, UniProt Q92847)
[13] = target: T5, Gastrin/cholecystokinin type B receptor (Homo sapiens, UniProt P32239)
T5 sequence (P32239 whole entry): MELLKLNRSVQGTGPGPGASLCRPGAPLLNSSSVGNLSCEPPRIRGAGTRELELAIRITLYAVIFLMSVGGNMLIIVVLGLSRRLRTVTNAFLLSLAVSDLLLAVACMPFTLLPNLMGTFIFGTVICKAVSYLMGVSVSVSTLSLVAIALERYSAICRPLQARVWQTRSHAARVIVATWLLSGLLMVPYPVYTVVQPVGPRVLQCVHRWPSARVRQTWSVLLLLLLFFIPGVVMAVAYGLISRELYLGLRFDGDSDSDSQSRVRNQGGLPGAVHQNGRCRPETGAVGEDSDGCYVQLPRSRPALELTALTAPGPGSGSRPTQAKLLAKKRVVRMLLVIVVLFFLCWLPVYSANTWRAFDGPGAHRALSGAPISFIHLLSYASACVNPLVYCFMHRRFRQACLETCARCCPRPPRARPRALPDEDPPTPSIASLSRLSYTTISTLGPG
Also: assay procedure not described here.

Sequence of Delta-type opioid receptor (P41143 whole entry): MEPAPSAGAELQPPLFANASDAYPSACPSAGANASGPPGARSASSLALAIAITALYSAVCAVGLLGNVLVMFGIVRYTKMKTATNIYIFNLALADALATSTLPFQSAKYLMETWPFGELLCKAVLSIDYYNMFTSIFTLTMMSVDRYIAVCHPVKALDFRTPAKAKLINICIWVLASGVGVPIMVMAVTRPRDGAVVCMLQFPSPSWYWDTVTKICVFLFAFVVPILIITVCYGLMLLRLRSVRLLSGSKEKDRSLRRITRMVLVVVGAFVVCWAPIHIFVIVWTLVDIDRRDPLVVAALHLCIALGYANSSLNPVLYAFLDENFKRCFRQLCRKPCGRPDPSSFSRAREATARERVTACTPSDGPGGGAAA
Sequence of Muscarinic acetylcholine receptor M3 (P20309 whole entry): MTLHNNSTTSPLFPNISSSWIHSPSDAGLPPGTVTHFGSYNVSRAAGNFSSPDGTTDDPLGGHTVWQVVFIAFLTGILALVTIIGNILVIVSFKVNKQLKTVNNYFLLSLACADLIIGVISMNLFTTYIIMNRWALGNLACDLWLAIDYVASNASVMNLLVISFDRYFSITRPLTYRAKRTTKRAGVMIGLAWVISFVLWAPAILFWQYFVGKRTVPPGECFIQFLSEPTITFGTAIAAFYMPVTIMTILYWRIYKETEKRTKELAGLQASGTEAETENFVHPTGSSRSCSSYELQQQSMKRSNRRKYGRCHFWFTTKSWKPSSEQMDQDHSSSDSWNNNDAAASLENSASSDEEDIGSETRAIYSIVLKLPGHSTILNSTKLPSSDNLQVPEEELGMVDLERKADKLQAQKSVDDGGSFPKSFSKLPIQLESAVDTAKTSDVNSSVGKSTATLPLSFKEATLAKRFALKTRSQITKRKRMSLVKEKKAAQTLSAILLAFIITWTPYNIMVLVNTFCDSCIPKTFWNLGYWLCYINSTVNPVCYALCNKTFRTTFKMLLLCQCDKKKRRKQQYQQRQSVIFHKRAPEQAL
Sequence of Histamine H2 receptor (P25021 whole entry): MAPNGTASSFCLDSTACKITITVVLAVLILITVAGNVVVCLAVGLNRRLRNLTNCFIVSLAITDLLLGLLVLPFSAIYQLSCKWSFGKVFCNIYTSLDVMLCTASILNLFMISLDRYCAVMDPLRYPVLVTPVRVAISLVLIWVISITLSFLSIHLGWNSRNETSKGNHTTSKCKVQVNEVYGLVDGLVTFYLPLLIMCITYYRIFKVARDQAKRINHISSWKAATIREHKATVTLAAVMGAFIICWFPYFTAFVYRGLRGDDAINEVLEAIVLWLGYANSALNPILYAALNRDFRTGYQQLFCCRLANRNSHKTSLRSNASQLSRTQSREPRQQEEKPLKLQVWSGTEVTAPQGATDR
Sequence of 5-hydroxytryptamine receptor 2B (P41595 whole entry): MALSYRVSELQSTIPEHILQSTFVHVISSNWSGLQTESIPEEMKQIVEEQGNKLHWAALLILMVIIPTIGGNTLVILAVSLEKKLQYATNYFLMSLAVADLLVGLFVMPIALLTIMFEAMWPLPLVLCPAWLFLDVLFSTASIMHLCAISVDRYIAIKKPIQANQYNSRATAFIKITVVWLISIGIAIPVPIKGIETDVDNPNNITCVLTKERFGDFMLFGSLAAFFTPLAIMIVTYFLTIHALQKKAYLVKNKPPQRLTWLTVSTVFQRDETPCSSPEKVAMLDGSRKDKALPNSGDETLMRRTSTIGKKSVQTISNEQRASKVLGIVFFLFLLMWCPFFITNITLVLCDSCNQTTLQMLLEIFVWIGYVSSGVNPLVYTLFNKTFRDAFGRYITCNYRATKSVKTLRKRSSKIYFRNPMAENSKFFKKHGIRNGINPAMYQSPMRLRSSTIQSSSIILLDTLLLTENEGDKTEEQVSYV
Sequence of Growth hormone secretagogue receptor type 1 (Q92847 whole entry): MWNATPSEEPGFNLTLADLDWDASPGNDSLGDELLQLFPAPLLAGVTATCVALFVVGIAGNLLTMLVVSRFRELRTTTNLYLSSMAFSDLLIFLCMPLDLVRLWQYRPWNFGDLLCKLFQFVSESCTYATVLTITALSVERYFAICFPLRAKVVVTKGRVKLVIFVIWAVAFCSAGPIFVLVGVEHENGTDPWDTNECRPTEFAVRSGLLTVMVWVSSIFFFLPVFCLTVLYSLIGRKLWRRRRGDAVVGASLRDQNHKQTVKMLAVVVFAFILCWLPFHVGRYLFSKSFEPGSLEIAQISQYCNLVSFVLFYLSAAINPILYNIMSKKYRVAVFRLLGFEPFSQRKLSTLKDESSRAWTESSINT
Sequence of D(1A) dopamine receptor (P21728 whole entry): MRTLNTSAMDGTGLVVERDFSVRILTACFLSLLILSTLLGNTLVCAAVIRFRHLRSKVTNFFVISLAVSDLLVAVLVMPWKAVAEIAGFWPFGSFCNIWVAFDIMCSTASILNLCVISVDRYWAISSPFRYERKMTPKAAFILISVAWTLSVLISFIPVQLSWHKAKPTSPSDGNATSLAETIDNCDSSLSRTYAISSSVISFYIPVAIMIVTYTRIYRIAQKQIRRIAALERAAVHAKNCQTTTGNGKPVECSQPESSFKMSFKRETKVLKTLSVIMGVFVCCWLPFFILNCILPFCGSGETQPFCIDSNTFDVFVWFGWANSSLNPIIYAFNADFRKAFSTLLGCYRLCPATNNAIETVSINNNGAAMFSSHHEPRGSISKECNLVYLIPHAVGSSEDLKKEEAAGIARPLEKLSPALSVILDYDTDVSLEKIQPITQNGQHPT
Sequence of Histamine H1 receptor (P35367 whole entry): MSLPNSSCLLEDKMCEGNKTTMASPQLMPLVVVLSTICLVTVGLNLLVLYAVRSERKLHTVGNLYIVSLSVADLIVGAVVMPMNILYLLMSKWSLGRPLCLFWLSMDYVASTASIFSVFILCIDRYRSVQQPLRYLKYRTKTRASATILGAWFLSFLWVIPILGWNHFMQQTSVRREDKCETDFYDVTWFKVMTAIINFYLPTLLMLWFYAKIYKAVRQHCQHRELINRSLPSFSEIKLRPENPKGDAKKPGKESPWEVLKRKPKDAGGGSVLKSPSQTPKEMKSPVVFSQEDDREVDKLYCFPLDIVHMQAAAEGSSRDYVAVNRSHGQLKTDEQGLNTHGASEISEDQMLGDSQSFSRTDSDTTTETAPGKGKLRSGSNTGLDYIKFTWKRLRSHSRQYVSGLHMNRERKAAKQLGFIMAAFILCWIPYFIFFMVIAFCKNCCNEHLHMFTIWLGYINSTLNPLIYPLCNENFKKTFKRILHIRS
Sequence of Sodium-dependent serotonin transporter (P31645 whole entry): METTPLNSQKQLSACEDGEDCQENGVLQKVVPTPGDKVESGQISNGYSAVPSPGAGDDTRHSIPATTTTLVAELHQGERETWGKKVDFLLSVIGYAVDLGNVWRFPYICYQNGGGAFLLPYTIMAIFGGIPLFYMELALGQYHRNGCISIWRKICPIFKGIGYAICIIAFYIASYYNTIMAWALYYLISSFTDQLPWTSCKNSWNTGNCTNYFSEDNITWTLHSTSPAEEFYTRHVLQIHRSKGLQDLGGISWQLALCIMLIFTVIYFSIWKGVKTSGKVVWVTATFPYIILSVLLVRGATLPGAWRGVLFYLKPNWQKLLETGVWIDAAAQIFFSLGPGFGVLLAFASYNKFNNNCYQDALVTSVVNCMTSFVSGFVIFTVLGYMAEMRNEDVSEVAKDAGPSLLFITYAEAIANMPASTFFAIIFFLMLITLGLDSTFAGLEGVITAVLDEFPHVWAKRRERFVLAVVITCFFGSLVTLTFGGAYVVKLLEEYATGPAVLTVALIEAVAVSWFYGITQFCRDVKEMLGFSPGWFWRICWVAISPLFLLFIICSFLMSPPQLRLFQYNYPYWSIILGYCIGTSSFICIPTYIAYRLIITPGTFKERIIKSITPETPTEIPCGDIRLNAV
Sequence of cGMP-inhibited 3',5'-cyclic phosphodiesterase 3A (Q14432 whole entry): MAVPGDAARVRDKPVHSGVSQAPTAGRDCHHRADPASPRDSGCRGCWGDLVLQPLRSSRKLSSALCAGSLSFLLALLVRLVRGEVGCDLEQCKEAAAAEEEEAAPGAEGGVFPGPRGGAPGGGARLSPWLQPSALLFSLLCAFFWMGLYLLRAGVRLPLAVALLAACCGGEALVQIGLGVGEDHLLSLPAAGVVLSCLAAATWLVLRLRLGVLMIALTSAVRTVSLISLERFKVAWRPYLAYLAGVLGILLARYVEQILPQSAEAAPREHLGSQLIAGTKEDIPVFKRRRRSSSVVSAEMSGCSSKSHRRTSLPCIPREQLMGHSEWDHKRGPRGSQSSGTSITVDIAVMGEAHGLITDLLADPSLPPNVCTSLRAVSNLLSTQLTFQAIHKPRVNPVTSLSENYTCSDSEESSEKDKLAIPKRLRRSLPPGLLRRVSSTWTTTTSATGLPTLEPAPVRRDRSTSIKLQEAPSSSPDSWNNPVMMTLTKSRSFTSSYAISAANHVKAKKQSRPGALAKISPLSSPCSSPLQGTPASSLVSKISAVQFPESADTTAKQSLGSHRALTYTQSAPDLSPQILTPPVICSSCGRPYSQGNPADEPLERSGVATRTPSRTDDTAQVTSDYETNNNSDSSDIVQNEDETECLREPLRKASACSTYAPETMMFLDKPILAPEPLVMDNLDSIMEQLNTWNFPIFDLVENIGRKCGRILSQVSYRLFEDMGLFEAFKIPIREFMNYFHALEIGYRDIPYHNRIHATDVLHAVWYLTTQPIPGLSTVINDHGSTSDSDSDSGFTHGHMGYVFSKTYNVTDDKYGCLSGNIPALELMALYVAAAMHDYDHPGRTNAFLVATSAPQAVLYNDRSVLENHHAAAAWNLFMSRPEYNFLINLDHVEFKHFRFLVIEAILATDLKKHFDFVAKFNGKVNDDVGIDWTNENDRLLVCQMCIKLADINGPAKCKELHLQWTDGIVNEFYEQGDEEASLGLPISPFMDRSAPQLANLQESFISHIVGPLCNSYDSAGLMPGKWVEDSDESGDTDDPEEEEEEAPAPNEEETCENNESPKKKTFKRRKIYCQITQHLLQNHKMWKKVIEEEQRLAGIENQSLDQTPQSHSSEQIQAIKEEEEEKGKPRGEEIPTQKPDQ

| SMILES | AC50 (D(1A) dopamine receptor) | AC50 [1] | AC50 [2] | AC50 [3] | AC50 [4] | AC50 [5] | AC50 [6] | AC50 (Histamine H1 receptor) | AC50 [7] | AC50 [8] | AC50 [9] | AC50 [10] | AC50 [11] | AC50 (Histamine H2 receptor) | AC50 [12] | AC50 [13] |
| --- | --- | --- | --- | --- | --- | --- | --- | --- | --- | --- | --- | --- | --- | --- | --- | --- |
| O=C(O)[C@H](CC(=O)N1C[C@H]2CCCC[C@H]2C1)Cc1ccccc1 [MITIGLINIDE] | > 10 µM | > 10 µM | > 10 µM | > 10 µM | > 30 µM | > 30 µM | > 10 µM | > 10 µM | > 10 µM | > 10 µM | > 10 µM | > 10 µM | > 30 µM | > 10 µM | > 10 µM |  |
| CN1C(=O)OC(C)(C)C1=O [TRIMETHADIONE] | > 10 µM | > 10 µM | > 10 µM |  |  | > 30 µM | > 10 µM |  | > 10 µM | > 10 µM | > 10 µM | > 10 µM | > 30 µM | > 10 µM | > 10 µM |  |
| CC1(C)O[C@@H]2C[C@H]3[C@@H]4CCC5=CC(=O)C=C[C@]5(C)[C@H]4[C@@H](O)C[C@]3(C)[C@]2(C(=O)CO)O1 [DESONIDE] | > 10 µM | > 10 µM | > 10 µM | > 10 µM | > 30 µM | > 30 µM | > 10 µM | > 10 µM | > 10 µM | > 10 µM | > 10 µM | > 30 µM | > 30 µM | > 10 µM | > 10 µM |  |
| N#Cc1ccc([C@H]2CCc3cncn32)c(F)c1 [OSILODROSTAT] |  |  | > 10 µM |  | > 10 µM | > 10 µM | > 10 µM | 10 µM |  |  |  | > 10 µM | > 10 µM |  | > 10 µM | > 10 µM |
| CC=CC(=O)N(CC)c1ccccc1C | > 10 µM | > 10 µM | > 10 µM |  |  | > 30 µM | > 10 µM |  | > 10 µM | > 10 µM | > 10 µM | > 10 µM | > 30 µM | > 10 µM | > 10 µM |  |
| O=C(O)C[C@H](O)C[C@H](O)/C=C/c1c(C2CC2)nc2ccccc2c1-c1ccc(F)cc1 [PITAVASTATIN] | > 10 µM | > 10 µM | > 10 µM | > 10 µM | > 30 µM | > 30 µM | > 30 µM | > 30 µM | > 10 µM | > 10 µM | > 30 µM | > 30 µM | > 30 µM | > 10 µM | > 10 µM |  |
| NCC[C@H](O)C(=O)N[C@@H]1C[C@H](N)[C@@H](O[C@H]2O[C@H](CN)[C@@H](O)[C@H](O)[C@H]2O)[C@H](O)[C@H]1O[C@H]1O[C@H](CO)[C@@H](O)[C@H](N)[C@H]1O [AMIKACIN] | > 10 µM | > 10 µM | > 10 µM |  |  | > 30 µM | > 10 µM |  | > 10 µM | > 10 µM | > 10 µM | > 10 µM | > 30 µM | > 10 µM | > 10 µM |  |
| C=CCC1(C(C)CC)C(=O)NC(=O)NC1=O (stereo unspecified) [TALBUTAL] | > 10 µM | > 10 µM | > 10 µM | > 10 µM | > 30 µM | > 30 µM | > 10 µM | > 10 µM | > 10 µM | > 10 µM | > 10 µM | > 10 µM | > 30 µM | > 10 µM | > 10 µM |  |
| C/C(O)=C(\C#N)C(=O)Nc1ccc(C(F)(F)F)cc1 [TERIFLUNOMIDE] | > 30 µM | > 30 µM | > 30 µM | > 30 µM | > 30 µM | > 30 µM | > 30 µM | > 30 µM | > 30 µM | > 30 µM | > 30 µM | > 30 µM | > 30 µM |  | > 30 µM |  |
| CC(C[N+](C)(C)C)OC(N)=O (stereo unspecified) [BETHANECHOL] | > 10 µM | > 10 µM | > 10 µM | > 10 µM | > 30 µM | > 30 µM | > 10 µM | > 10 µM | > 10 µM | > 10 µM |  | > 10 µM | > 30 µM | > 10 µM | > 10 µM |  |
| CC(C)Cn1cnc2c(N)nc3ccccc3c21 [IMIQUIMOD] | > 10 µM | > 10 µM | > 10 µM |  |  | > 30 µM | > 10 µM |  | > 10 µM | 19 µM | > 10 µM | > 10 µM | > 30 µM | > 10 µM | > 10 µM |  |
| C#C[C@]1(O)CC[C@H]2[C@@H]3CCC4=Cc5oncc5C[C@]4(C)[C@H]3CC[C@@]21C [DANAZOL] |  | > 10 µM | > 10 µM |  |  |  | > 10 µM |  | > 10 µM | > 10 µM | > 10 µM | > 10 µM | > 30 µM | > 10 µM | > 10 µM |  |
| CNS(=O)(=O)Cc1ccc2[nH]cc(CCN(C)C)c2c1 | > 30 µM | > 30 µM | > 30 µM |  |  | > 30 µM |  |  |  | 13 µM | > 30 µM | > 30 µM | > 30 µM | > 30 µM | > 30 µM | > 30 µM |
| CCCC(=O)O[C@]1(C(=O)CO)CC[C@H]2[C@@H]3CCC4=CC(=O)CC[C@]4(C)[C@H]3[C@@H](O)C[C@@]21C [HYDROCORTISONE BUTYRATE] | > 10 µM | > 10 µM | > 10 µM | > 10 µM | > 30 µM | > 30 µM | > 10 µM | > 10 µM | > 10 µM | > 10 µM | > 10 µM | > 10 µM | > 30 µM | > 10 µM | > 10 µM |  |
